{"source": "patent US8470861B2", "about": "“Mitochondria-targeted antioxidant prodrugs and methods of use” (University of Rochester, priority 2005, dated 2013)", "key": {"[1]": {"tested_on": "isolated rat cardiomyocytes", "assay": "Cytoprotective effects in cardiomyocytes, hypoxia-reoxygenation protocol (Trypan Blue exclusion)", "type": "cell-based", "settings": "for cytoprotection: compounds 1 μM, etomoxir 20 μM; for cytoprotective effect in presence of etomoxir: compound 1 μM + etomoxir 20 μM", "description": "Upper panel: Alkanoic acids 28a and 28b (1 μM), methimazole (1 μM), and etomoxir (20 μM) were incubated with cardiomyocytes in a hypoxia-reoxygenation protocol. CON, control; HR, hypoxia-reoxygenation; Eto, etomoxir. Statistical analysis (one-way ANOVA, n=3): CON vs. HR, p<0.05; HR vs. HR+28a, p<0.05; CON vs. HR+28a, NS; HR+28a vs. HR+28a+Eto, p<0.05; HR vs. HR+28b, p<0.05; HR+28b vs. HR+28b+Eto, p<0.05; HR vs. Methimazole, NS. Lower panel: Alkanoic acids 25c and 30a (1 μM), 2,6-dimethylphenol (1 μM), and etomoxir (20 μM) were incubated with cardiomyocytes in a hypoxia-reoxygenation protocol. CON, control; HR, hypoxia-reoxygenation; Eto, etoximir. Statistical analysis (one-way ANOVA, n=3): CON vs. HR, p<0.05; HR vs. HR+25c, p<0.05; CON vs. HR+25c, p<0.05; HR+25c vs. HR+25c+Eto, p<0.05; HR vs. HR+30a, p<0.05; HR+30a vs. HR+30a+Eto, p<0.05; HR vs. 2,6-Dimethylphenol, NS.\nPrimary ventricular cardiomyocytes were isolated from adult rats and viability was assessed […]. All cells were used within 1 hour of isolation and were 80-85% viable and rod-shaped prior to the experiments. Cell viability was quantified with the Trypan Blue exclusion test. The cells were subjected to a hypoxia-reoxygenation protocol designed to simulate cardiac ischemia-reperfusion injury."}, "[2]": {"tested_on": "IMR90 cells", "settings": "cited from earlier work"}, "[3]": {"settings": "5 mg/kg daily for two weeks in feed, cited from earlier work"}, "[4]": {"tested_on": "isolated rat liver mitochondria (mitochondrial β-oxidation)", "assay": "Mitochondrial biotransformation of alkanoic-acid-based prodrugs", "settings": "for biotransformation / substrate quality for β-oxidation (in words): isolated rat liver mitochondria; for effect of added carnitine on biotransformation: presence vs. absence of added carnitine", "excerpt": "Mitochondrial Biotransformation of Alkanoic-Acid-Based Prodrugs. Rat liver mitochondria were isolated from livers freshly collected from adult male Sprague-Dawley rats (190-225 g) and were used as soon as possible after isolation (Nadtochiy, et al. (2007) J. Mol. Cell. Cardiol. 42:812; Hoffman et al. (2007) Am. J. Physiol. 292:H101). Livers were removed immediately after CO2 euthanasia of the animal, minced, and homogenized with a glass Dounce homogenizer with loose-fitting pestle in liver mitochondria isolation medium that contained 0.25 M sucrose, 2.0 mM HEPES, 1.0 mM EGTA (pH 7.4) at 4° C. The homogenate was centrifuged once at 1000×g for 3 minutes at 4° C. to remove cellular debris. After removal of visible surface fat, the resulting supernatant was centrifuged at 10,000×g for 10 minutes at 4° C. The supernatant was discarded after removing visible surface fat, and the pellet was suspended in ice-cold liver mitochondria isolation medium and centrifuged again at 10,000×g for 10 minutes at 4° C. The mitochondrial pellet thus obtained was suspended in Ca^2+-depletion buffer (1 mM EGTA, 10 mM NaCl, 5 mM succinate, 195 mM mannitol, 25 mM sucrose, 40 mM HEPES, pH 7.2) at room temperature) and incubated with gentle stirring first at room temperature for 10 minutes and then in an ice bath for 5 minutes. Ca^2+-Depletion buffer serves to chelate calcium, activate mitochondrial respiration, and activate the Na^+/Ca^2+ exchanger. The mitochondrial suspension was then centrifuged at 10,000×g for 10 minutes at 4° C., and the pellet was suspended in liver swelling buffer that contained 195 mM mannitol, 25 mM sucrose, 40 mM HEPES (pH 7.2) at 4° C.; liver swelling buffer allows for ionic/osmotic equilibrium through the remainder of the preparation. The suspension was centrifuged at 10,000×g for 10 minutes at 4° C., followed by the removal of light mitochondria and a final centrifugation at 10,000×g for 10 minutes at 4° C. The mitochondrial pellet was suspended in liver swelling buffer at 4° C. Protein concentrations were determined with the Lowry reagent.^56\nThe quality of mitochondrial preparations was determined by estimating the respiration control ratio (RCR, i.e., the ratio of state 3 vs. state 4 respiration rates) with a Clark-type oxygen electrode (Oxygraph, Hansatech Instruments, Norfolk, England). The incubation mixtures contained 120 mM KCl, 25 mM sucrose, 5 mM MgCl2, 5 mM KH2PO4, 1 mM EGTA, 10 mM HEPES, 10 mM succinate, 2.5 mg/mL fat-free bovine serum albumin, 0.5-0.8 mg/mL mitochondrial protein, 5 μM rotenone, and 100 μM ADP (pH 7.4) and were incubated at 37° C.\nReaction mixtures were prepared in disposable glass culture tubes and contained 20 mM HEPES, 1 mM EGTA, 100 mM KCl, 5 mM KH2PO4, 10 mM MgCl2, 25 mM sucrose, 2 mM L-carnitine (if added), 5 mM ATP, 10 mg/mL bovine serum albumin, 1.4 mM dithiothreitol, 0.13 mM CoA, and 1 mM substrate (pH 7.4). Reaction mixtures were incubated at 37° C. with gentle stirring. Mitochondrial protein (approximately 5 mg/mL) was added, and the samples were incubated for 5 minutes with gentle mixing, which was maintained during the incubation period, to keep the homogenate suspended. After 5 minutes of incubation, the substrates were added. The substrates were dissolved in methanol and added to the reaction mixtures to a final concentration of 1 mM, unless otherwise stated; the final methanol concentration was ≦0.5%. ω-(1-Methyl-1H-imidazol-2-ylthio)alkanoic acids 28a and 28b were dissolved in distilled water and added to the reaction mixtures to a final concentration of 1 mM. Samples were incubated at 37° C. for 30 minutes with constant gentle mixing, and samples were collected for analysis at t=0, 10, 20, and 30 minutes.\nPhenolic metabolite formation, i.e., phenol, 2-methylphenol, 2,6-dimethylphenol, 3,5-dimethylphenol, and 2,6-diisopropylphenol, from ω-(phenoxy)alkanoic acids, was quantified by HPLC analysis."}, "[5]": {"settings": "cited from earlier work"}}, "data": [{"smiles": "CCOC(=O)[C@@]1(CCCCCCOc2ccc(Cl)cc2)CO1", "note": "[etomoxir, reference compound]", "values": [{"measurement": "cytoprotection", "setting": "[1]", "result": "no cytoprotective effect"}]}, {"smiles": "CC(C)(C)NO", "note": "[N-tert-butylhydroxylamine]", "values": [{"measurement": "concentration that delays senescence (as low as)", "setting": "[2]", "result": 10, "unit": "µM"}, {"measurement": "radiation sensitivity", "setting": "[3]; 8 Gy whole-body irradiation", "result": "decreased the radiation sensitivity"}, {"measurement": "compound-associated toxicity", "setting": "[3]", "result": "no compound-associated toxicity was observed"}]}, {"smiles": "Cc1cccc(C)c1OCSCCC(=O)O", "note": "[Compound 29, 3-[(2,6-Dimethylphenoxy)methylthio]propanoic acid]", "values": [{"measurement": "biotransformation / substrate quality for β-oxidation (in words)", "setting": "[4]", "result": "much better substrate"}, {"measurement": "effect of added carnitine on biotransformation", "setting": "[4]", "result": "no significant difference"}]}, {"smiles": "Cn1ccnc1S", "note": "[methimazole, 2-Mercapto-1-methylimidazole, reference compound]", "values": [{"measurement": "cytoprotection", "setting": "[1]", "result": "failed to provide cytoprotection"}]}, {"smiles": "Cn1ccnc1SCCCCC(=O)O", "note": "[Compound 28b, 5-(1-Methyl-1H-imidazol-2-ylthio)pentanoic acid]", "values": [{"measurement": "cytoprotective effect in presence of etomoxir", "setting": "[1]", "result": "blocked by etomoxir"}, {"measurement": "cytoprotection", "setting": "[1]", "result": "significant cytoprotection"}]}, {"smiles": "CNO", "note": "[N-methylhydroxylamine]", "values": [{"measurement": "concentration that delays senescence (as low as)", "setting": "[2]", "result": 10, "unit": "µM"}]}, {"smiles": "ONCc1ccccc1", "note": "[N-benzylhydroxylamine]", "values": [{"measurement": "concentration that delays senescence (as low as)", "setting": "[2]", "result": 10, "unit": "µM"}]}, {"smiles": "Cc1c(S)ncn1C", "note": "[1,5-dimethyl-4-mercaptoimidazole]", "values": [{"measurement": "pKa of the thiol group", "setting": "[5]", "result": 2.3}]}, {"smiles": "Cn1ccnc1SCCC(=O)O", "note": "[Compound 28a, 3-(1-methyl-1H-imidazol-2-ylthio)propanoic acid]", "values": [{"measurement": "cytoprotective effect in presence of etomoxir", "setting": "[1]", "result": "blocked by etomoxir"}, {"measurement": "cytoprotection", "setting": "[1]", "result": "significant cytoprotection"}]}, {"smiles": "O=C(O)CCOc1ccccc1", "note": "[Compound 25a, 3-(Phenoxy)propanoic acid]", "values": [{"measurement": "effect of added carnitine on biotransformation", "setting": "[4]", "result": "no significant difference"}]}, {"smiles": "Cc1cccc(C)c1OCCC(=O)O", "note": "[Compound 25c, 3-(2,6-Dimethylphenoxy)propanoic acid]", "values": [{"measurement": "cytoprotective effect in presence of etomoxir", "setting": "[1]", "result": "blocked by etomoxir"}, {"measurement": "cytoprotection", "setting": "[1]", "result": "cytoprotective"}, {"measurement": "biotransformation / substrate quality for β-oxidation (in words)", "setting": "[4]", "result": "poor substrates"}]}, {"smiles": "CC(C)c1cccc(C(C)C)c1O/C=C/C(=O)O", "note": "[Compound 30b, (E)-3-(2,6-diisopropylphenoxy)acrylic acid]", "values": [{"measurement": "biotransformation / substrate quality for β-oxidation (in words)", "setting": "[4]", "result": "No quantifiable biotransformation"}]}, {"smiles": "Cc1cccc(C)c1OCCCCC(=O)O", "note": "[Compound 26c, 5-(2,6-Dimethylphenoxy)pentanoic acid]", "values": [{"measurement": "biotransformation / substrate quality for β-oxidation (in words)", "setting": "[4]", "result": "poor substrates"}]}, {"smiles": "Cc1cccc(C)c1O/C=C/C(=O)O", "note": "[Compound 30a, (E)-3-(2,6-dimethylphenoxy)acrylic acid]", "values": [{"measurement": "cytoprotective effect in presence of etomoxir", "setting": "[1]", "result": "blocked by etomoxir"}, {"measurement": "cytoprotection", "setting": "[1]", "result": "cytoprotective"}, {"measurement": "rate of biotransformation relative to saturated analog 25c", "setting": "[4]; 30a vs. 25c", "result": "approximately 20 fold"}]}, {"smiles": "Cc1cccc(C)c1O/C=C\\C(=O)O", "note": "[(Z)-3-(2,6-dimethylphenoxy)acrylic acid]", "values": [{"measurement": "biotransformation / substrate quality for β-oxidation (in words)", "setting": "[4]", "result": "no biotransformation"}]}]}
